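A five-concentration, 48-hour dose response in 96-well plates underlies each endpoint, interpolated linearly between surrounding concentrations. GI50 is the concentration that inhibits growth by half.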 Activity calls are given as the source filed them. No stated cut-off is given here; in the data, active = GI50 up to about 1.1 µM and inactive = higher.

The text below walks through data of ChEMBL document CHEMBL1201862, “PubChem BioAssay data set” (2004).

What all share (test): growth of human tumour cells (NCI), 48 h
Test [1] has as its system NCI-H23.
Test [2] relates to COLO 205.
Test [3] deals with U-251.
Test [4] deals with IGROV-1.
Test [5] relates to SNB-19.
For test [6], the system named is HCT-15.
For test [7], the system named is CCRF-CEM.
In test [8] the test system is NCI-H460.
Test [9] concerns SN12C.
Test [10] relates to TK-10.
The subject of test [11] is LOX IMVI.
The subject of test [12] is SK-MEL-5.
Test [13] relates to NCI-H522.
The test system of test [14] is SK-MEL-2.
For test [15], the system named is SR.
Test [16] concerns UACC-257.
The test system of test [17] is NCI-H226.

Turning to `CC(=O)c1c(O)c2c([nH]c1=O)CCCC2`, the GI50 in [1] is 41.1 µM (inactive); in test [2] it was > 100 µM (inactive); in test [3] it was 23.6 µM (inactive); in test [4], 32.9 µM (inactive); in test [5], 18 µM (inactive); in test [6], 48.1 µM. In addition, the GI50 in [7] was > 100 µM (inactive); in [8] it was 6.84 µM (inactive); in test [9], 22.5 µM (inactive); in [10] it was > 100 µM (inactive); in test [11], 20.1 µM (inactive).
Take `CN(C)CCC(/C=C/c1ccccc1)=N\Nc1ccc(Cl)c(Cl)c1`: the GI50 in [1] is 2.81 µM (inactive); in test [2], 2.6 µM (inactive); in test [3], 4.59 µM (inactive); in test [4], 3.04 µM (inactive); in [12], 4.49 µM (inactive); in test [5] it was 5.53 µM (inactive). Also, the GI50 in test [6] was 3.6 µM; in test [7], 2.91 µM (inactive); in test [8], 2.01 µM (inactive); in [9], 3.52 µM (inactive); in [10], 2.38 µM (inactive); in test [13], 2.1 µM (inactive). Also, the GI50 in test [14] was 2.49 µM (inactive); in test [11], 1.99 µM (inactive); in test [15], 2.09 µM (inactive); in [16] it was 3.33 µM (inactive).
As to `NC(=O)c1csc(C2C=CC(CO)O2)n1` (configuration not stated), the GI50 in test [17], in [1], in test [2], in test [3], in test [4] and in [5] was > 100 µM (inactive) each time. The GI50 in [6] was over 100 µM; in test [7], > 100 µM (inactive); in [8] it was > 100 µM (inactive); in test [9], > 100 µM (inactive); in test [10], > 100 µM (inactive); in [13], > 100 µM (inactive). Besides, the GI50 in [14], in test [11] and in test [16] was > 100 µM (inactive) throughout.
Turning to `COc1cc2c(cc1OC)C1Cc3cc(OC)c(OC)cc3N1CC2` (configuration not stated), the GI50 in test [17] was 20.3 µM (inactive); in [1], 29.5 µM (inactive); in test [2] it was 20.5 µM (inactive); in test [3], 35.4 µM (inactive); in test [4], 52.6 µM (inactive); in [5], 36.2 µM (inactive). The GI50 in test [7] is 43.5 µM (inactive); in test [8], 40.2 µM (inactive); in test [9] it was 75.2 µM (inactive); in test [10] it was 23 µM (inactive); in [13], 12.2 µM (inactive); in [14], 52.4 µM (inactive). Also, the figures for the GI50 in test [15] and in test [16] were 35.9 µM (inactive) and 42 µM (inactive), respectively.
As to `O=C(O)c1c2c(cc3c(=O)c4ccccc4[nH]c13)CCCC2`, the GI50 is > 100 µM (inactive) in test [17]; > 100 µM (inactive) in test [1]; > 100 µM (inactive) in test [2]; > 10 µM (inactive) in test [3]; > 100 µM (inactive) in [4]; 88.5 µM (inactive) in test [5]. Moreover, the GI50 is 62.7 µM in [6]; > 100 µM (inactive) in test [7]; > 100 µM (inactive) in test [8]; > 100 µM (inactive) in test [9]; > 100 µM (inactive) in test [10]; > 100 µM (inactive) in test [14]. Also, the values for the GI50 in test [11], in test [15] and in [16] were 60.5 µM (inactive), > 100 µM (inactive) and > 100 µM (inactive), respectively.
Regarding `O=[N+]([O-])c1cccc(/C=N/C23CC4CC(CC(C4)C2)C3)c1`, the GI50 in [17] was > 100 µM (inactive); in test [1] it was > 100 µM (inactive); in test [2] it was > 100 µM (inactive); in test [3], > 100 µM (inactive); in test [4] it was > 100 µM (inactive); in test [12], 70.8 µM (inactive). The GI50 in test [5] was > 100 µM (inactive); in test [6], over 100 µM; in test [7] it was 25.1 µM (inactive); in test [8] it was > 100 µM (inactive); in test [9], > 100 µM (inactive); in [10], > 100 µM (inactive). The GI50 in test [13] is > 100 µM (inactive); in test [14], > 100 µM (inactive); in test [11] it was 63.7 µM (inactive); in [16] it was > 100 µM (inactive).
As for `COC(=O)C1=C(O)c2cc(-c3ccccc3)c(-c3ccccc3)c(C#N)c2NC(=O)C1`, the GI50 in test [1] is > 100 µM (inactive); in test [2], 6.08 µM (inactive); in [3], 7.69 µM (inactive); in [4], 0.522 µM (active); in test [5], 20.4 µM (inactive); in test [6], 1.55 µM. The GI50 in test [7] was 7.14 µM (inactive); in [8] it was 3.7 µM (inactive); in test [9], 47.9 µM (inactive); in test [14], 40.8 µM (inactive); in test [15] it was 2.96 µM (inactive); in test [16], 91.8 µM (inactive).
For the compound `O=S(=O)(N/N=C/c1ccc(Cl)cc1Cl)c1ccccc1`, the GI50 in test [17] was 99.3 µM (inactive); in [1], 69.7 µM (inactive); in test [2] it was 62.4 µM (inactive); in test [3], 91.2 µM (inactive); in test [4], > 100 µM (inactive); in test [12], > 100 µM (inactive). Moreover, the GI50 in [6] is over 100 µM; in test [7] it was 38.5 µM (inactive); in [9], 27.4 µM (inactive); in test [10], > 100 µM (inactive); in test [14], > 100 µM (inactive); in [11], 97.9 µM (inactive). Besides, the GI50 in test [15] was 57 µM (inactive); in test [16], > 100 µM (inactive).
With `N#CC(C(=O)C(=O)C(C#N)c1ccc(Br)cc1)c1ccc(Br)cc1` (configuration not stated), the GI50 in test [17] was 18.1 µM (inactive); in test [1], 3.91 µM (inactive); in test [2] it was 16.5 µM (inactive); in test [3] it was 11.6 µM (inactive); in test [4], 15.6 µM (inactive); in test [12] it was 14.4 µM (inactive). For the same compound, the GI50 was 17 µM (inactive) in [5]; 13.3 µM in test [6]; 4.47 µM (inactive) in test [7]; 16 µM (inactive) in [8]; 14.5 µM (inactive) in test [9]; 16.8 µM (inactive) in test [10]. In addition, the GI50 in [14] is 13.9 µM (inactive); in test [11], 11 µM (inactive); in test [15], 6.37 µM (inactive); in test [16], 11.9 µM (inactive).
For the compound `Fc1ccc(C2SCc3nc4ccccc4n32)cc1Cl` (configuration not stated), the GI50 in test [17] is 23.2 µM (inactive); in test [1], 22.5 µM (inactive); in test [2] it was 15.3 µM (inactive); in [3], 19.4 µM (inactive); in test [4], > 10 µM (inactive); in test [5] it was 34.4 µM (inactive). Further, the GI50 in [7] is 25.6 µM (inactive); in test [8], 29.2 µM (inactive); in test [9] it was 16.3 µM (inactive); in [10], 27.8 µM (inactive); in test [13], 13.7 µM (inactive); in test [14] it was > 10 µM (inactive). The GI50 was 17.9 µM (inactive) in test [11], 27.2 µM (inactive) in [15] and 22.8 µM (inactive) in test [16].
Regarding `C/C(CC(=O)Nc1ccccc1)=N\NC(N)=S`, the GI50 in test [17], in test [1], in test [2], in test [3], in [4] and in test [12] was > 100 µM (inactive) in each case. For the same compound, the GI50 in test [7], in test [8], in test [10], in [13], in test [14] and in [11] was > 100 µM (inactive) throughout. The GI50 in test [16] was > 100 µM (inactive).
In the case of `O=C(N/C(=C\c1ccc(/C=C(\NC(=O)c2ccccc2)c2nc3ccccc3[nH]2)cc1)c1nc2ccccc2[nH]1)c1ccccc1`, the GI50 in test [1], in test [2], in test [3], in test [4], in test [12] and in test [5] was > 100 µM (inactive) throughout. Moreover, the GI50 in test [6] was over 100 µM; in test [7] it was > 100 µM (inactive); in test [8], > 100 µM (inactive); in [9] it was > 100 µM (inactive); in test [10], > 100 µM (inactive); in [13] it was > 100 µM (inactive). The GI50 in test [14], in [11] and in [16] was > 100 µM (inactive) in each case.
As for `CSC(C1c2ccccc2N(c2ccc(C)cc2)C2=NC(=O)N(C)C(=O)C21Cl)S(=O)(=O)c1ccc(C)cc1` (configuration not stated), the GI50 was 22.2 µM (inactive) in test [17]; 22 µM (inactive) in [1]; 19.3 µM (inactive) in test [2]; 19.3 µM (inactive) in [3]; 33.3 µM (inactive) in test [4]; 17.3 µM (inactive) in [12]. In addition, the GI50 in [5] was 26.4 µM (inactive); in test [7] it was 10.8 µM (inactive); in test [8] it was 24 µM (inactive); in test [9], 21.7 µM (inactive); in test [10], 48.6 µM (inactive); in test [13], 13.4 µM (inactive). For the same compound, the GI50 in test [14] was 18.8 µM (inactive); in test [11], 20.5 µM (inactive); in [16] it was 23.7 µM (inactive).
Take `COC1CC(n2cc(F)c(N)nc2=O)OC1CO` (configuration not stated): the GI50 in [17], in [1], in test [2], in test [3], in test [12] and in test [5] was > 100 µM (inactive) in each case. The GI50 is over 100 µM in [6]; > 100 µM (inactive) in test [7]; 94 µM (inactive) in test [8]; > 100 µM (inactive) in [9]; > 100 µM (inactive) in test [10]; > 100 µM (inactive) in test [13]. Also, the GI50 in [14], in test [11] and in test [16] was > 100 µM (inactive) throughout.
